Paper PMC5442318, “Hundreds of dual-stage antimalarial molecules discovered by a functional gametocyte screen” (Nature Communications, 2017)

Key:
[1] = system: P. falciparum asexual blood stages; conditions: TCAMS data; ref 1 (Gamo et al., 2010); read-out: Pf Asexual blood stages XC50; cited from earlier work
[2] = system: P. falciparum stage V female gametocytes; assay: P. falciparum female gametocyte activation assay (Pf FGAA), 24 h or 48 h preincubation, Pfs25 expression readout; assay type: cell-based, Plasmodium falciparum NF54; conditions: mean; read-out: Gametocytes mean Pf FGAA IC50
Procedure, shortened: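 Purified stage V gametocytes from P. falciparum NF54 gametocyte cultures were exposed to compounds for 24 h or 48 h at 37 °C under 3% O2/5% CO2, then activated by temperature drop plus xanthurenic acid. Activated females were stained with Cy3-anti-Pfs25 (0.5 μg ml^−1) for 24 h at 26 °C and counted by high-content imaging; pIC50 by nonlinear regression.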

HepG2 cells = assay: HepG2 cytotoxicity assay; assay type: cell-based; conditions: mean
Procedure, shortened: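 Post-incubation CellTiter-Glo luminescence; 30 min RT equilibration, 10 min RT stabilization before reading.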

[3] = system: P. falciparum stages IV–V gametocytes; assay: Gametocytocidal ATP-depletion assay (gametocyte ATP bioluminescence); assay type: cell-based, Plasmodium falciparum
Procedure, shortened: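 Purified stage IV–V gametocytes (12,500/well) incubated with compound for 48 h at 37 °C under 3% O2/5% CO2. ATP measured by BacTiter-Glo luminescence as a viability surrogate; hits tested at 2 μM single concentration.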

| Compound | IC50 [1] [µM] | IC50 [2] [µM] | HepG2 cells mean TOX50 (HepG2 cells) [µM] | Gametocytes mean ATP inhibition at 2µM (%) [3] [%] |
| --- | --- | --- | --- | --- |
| Cl.c1ccc2c(C3CCN(CCCCOc4ccc5c(c4)CCN(CC4CC4)CC5)CC3)c[nH]c2c1 [TCMDC-136244] | 0.98 | 1.15 | 5.15 | -6.50 |
| COc1ccc(Nc2nccc(-c3ccc4ccnc(NCCCCN)c4c3)n2)cc1 [TCMDC-136642] | 0.75 | 1.51 | 14.29 | 21.11 |
| Cc1cc(OCCN2CCCCC2)ccc1NC(=O)c1cccc2c(=O)n(Cc3ccc(Cl)cc3)cnc12 [TCMDC-136727] | 1.05 | 1.4 | 4.17 | 13.25 |
| CC(C)NCc1ccc(OCc2cccc(COc3ccc(CNC(C)C)cc3I)c2)c(I)c1.Cl [TCMDC-137259] | 0.09 | 1.32 | 1.64 | 81.19 |
| CCCCOc1ccc(CNCCCCCCNCc2ccc(OCCCC)c3ccccc23)c2ccccc12.CS(=O)(=O)O [TCMDC-137281] | 1.13 | 0.4 | 2.29 | 94.34 |
| CS(=O)(=O)O.FC(F)(F)COc1ccc(CCNCCCCNCCc2ccc(OCC(F)(F)F)c3ccccc23)c2ccccc12 [TCMDC-137282] | 0.65 | 0.2 | 1.66 | 91.27 |
| CS(=O)(=O)O.FC(F)(F)COc1ccc2ccccc2c1CCNCCCCNCCc1c(OCC(F)(F)F)ccc2ccccc12 [TCMDC-137317] | 0.43 | 1.01 | 2.09 | 88.24 |
| COc1cc2c(cc1CCNCCCCNCCc1cc3c(cc1OC)CCCC3)CCCC2.CS(=O)(=O)O [TCMDC-137319] | 1 | 0.89 | 1.86 | 88.42 |
| COc1ccc2c(c1CCNCCCCNCCc1c(OC)ccc3c1CCCC3)CCCC2.CS(=O)(=O)O [TCMDC-137324] | 0.38 | 0.64 | 1.68 | 95.49 |
| C=CCOc1ccc2ccccc2c1CNCCCCCCNCc1c(OCC=C)ccc2ccccc12.CS(=O)(=O)O [TCMDC-137340] | 0.86 | 0.7 | 1.93 | 58.99 |
| Cl.c1ccc2c(Nc3ccc(Cc4ccc(Nc5c6ccccc6nc6ccccc56)cc4)cc3)c3ccccc3nc2c1 [TCMDC-137354] | 0.16 | 1.04 | 3.85 | -29.34 |
| Br.C/C=C/C=C/C1=NCCc2cc(OCCC)ccc21 [TCMDC-137442] | 0.91 | 1.3 | 18.29 | 30.75 |
| Cl.N=C(NCCCCC1CCCCC1)c1cccc(C(=N)NCCCCC2CCCCC2)n1 [TCMDC-137452] | 0.4 | 1.05 | 1.82 | 95.86 |
| CC(CNC(=N)c1cccc(C(=N)NCC(C)Oc2cccc(C3CCCCC3)c2)n1)Oc1cccc(C2CCCCC2)c1.Cl (stereo not shown) [TCMDC-137455] | 0.92 | 1.27 | 2.16 | 92.56 |
| N=C(NCC1CC1c1ccccc1)c1cccc(C(=N)NCC2CC2c2ccccc2)n1 (stereo not shown) [TCMDC-137456] | 1.76 | 1.89 | 6.21 | 24.65 |
| CCCCN(CCCC)CCCCNc1c2ccc(Cl)cc2nc2ccc(OC)cc12.Cl [TCMDC-137460] | 0.18 | 1.97 | 4.73 | 11.49 |
| COc1cc(CNCCCCCCNCc2cc(OC)c3ccccc3c2OC)c(OC)c2ccccc12.CS(=O)(=O)O [TCMDC-137502] | 0.7 | 1.67 | 3.67 | 1.18 |
| Clc1ccc(/N=C(/NCCCCCCCN/C(=N\c2ccc(Cl)cc2)Nc2ccc(Cl)cc2)Nc2ccc(Cl)cc2)cc1 [TCMDC-137529] | 0.32 | 0.58 | 2.00 | 15.83 |
| COc1ccc(CNCCCCCCNCc2ccc(OC)c3ccccc23)c2ccccc12.Cl [TCMDC-137631] | 0.58 | 0.72 | 1.82 | 16.64 |
